System: lashes and adjacent hairs of patients
Assay: lash and hair appearance in glaucoma patients treated in only one eye
Type: in vivo, human
Details: unilateral treatment
Source text: In the course of treating patients having glaucoma, treatment may only be appropriate in one eye. […] The lash appearance on the lids of the treated eyes would have appeared quite attractive if it represented a bilateral phenomenon. As a result of its asymmetric nature, the long lashes on one side could be construed as disturbing from a cosmetic standpoint. A systemic examination was preformed as a result of the asymmetric phenomenon. It soon became apparent that this altered appearance was not an isolated finding. […] Definite differences could be identified to varying degrees in the lashes and adjacent hairs of all patients who were taking the drug on a unilateral basis for longer than 6 months.
The changes in the lashes were apparent on gross inspection in several patients once attention was focused on the issue. In those with light colored hair and lashes, the differences were only seen easily with the aid of the high magnification and lighting capabilities of the slit lamp biomicroscope. In the course of glaucoma follow-up examination, attention is generally immediately focused on the eye itself. As a result of the high power magnification needed only one eye is seen at a time and the eye is seen at a high enough power that the lashes are not in focus. […]

CCNC(=O)CCC/C=C\C[C@@H]1[C@@H](/C=C/[C@@H](O)CCc2ccccc2)[C@H](O)C[C@@H]1O [bimatoprost]
lash growth, treated eye versus non-treated eye: longer, thicker, and fuller in the treated eye than in the non-treated eye
